In ChEMBL document CHEMBL1125364, “Thromboxane receptor antagonism combined with thromboxane synthase inhibition. 3. Pyridinylalkyl-substituted 8-[(arylsulfonyl)amino]octanoic acids” (J Med Chem, 1992):

Key:
Thromboxane-A synthase = target: T1, Thromboxane-A synthase (Homo sapiens, UniProt P24557); assay: The compound was tested in vitro for its inhibitory activity against thromboxane synthase A2 (TXA2)
T1 sequence (P24557 whole entry): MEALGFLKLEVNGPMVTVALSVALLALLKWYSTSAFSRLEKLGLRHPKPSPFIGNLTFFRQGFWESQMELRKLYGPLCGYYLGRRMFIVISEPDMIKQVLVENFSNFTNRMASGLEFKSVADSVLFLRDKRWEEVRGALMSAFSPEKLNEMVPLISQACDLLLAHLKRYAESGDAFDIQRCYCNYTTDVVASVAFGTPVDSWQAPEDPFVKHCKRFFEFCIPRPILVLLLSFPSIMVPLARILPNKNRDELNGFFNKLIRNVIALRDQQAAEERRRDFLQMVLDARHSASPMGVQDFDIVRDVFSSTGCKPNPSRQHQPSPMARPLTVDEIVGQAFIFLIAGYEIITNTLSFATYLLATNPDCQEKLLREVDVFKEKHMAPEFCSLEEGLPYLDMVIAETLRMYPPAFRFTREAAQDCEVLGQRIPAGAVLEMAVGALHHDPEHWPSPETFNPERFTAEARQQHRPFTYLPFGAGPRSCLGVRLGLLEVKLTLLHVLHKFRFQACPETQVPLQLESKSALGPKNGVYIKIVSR

Canis familiaris [1] = species on record: Canis familiaris; assay: The compound was tested in vitro for its inhibitory activity against U 46619-induced contraction of saphenous vein in dog.; type: functional; settings: Canis lupus familiaris, read-out: pA2 (converted)
Homo sapiens [2] = species on record: Homo sapiens; assay: The compound was tested in vitro for its inhibitory activity against U 46619-induced aggregation of washed human platelets.; type: functional
Homo sapiens [3] = species on record: Homo sapiens; assay: The compound was tested in vitro for its inhibitory activity against U 46619-induced aggregation of human platelet rich plasma (PRP).; type: functional
Canis familiaris [4] = species on record: Canis familiaris; settings: Canis lupus familiaris; Saphenous vein; filed as agonist
Canis familiaris [5] = species on record: Canis familiaris; assay: The compound was tested in vitro for its antagonistic activity against U 46619-induced contraction of saphenous vein in dog; agonist activity was observed at e-6 - e-7; settings: Canis lupus familiaris, filed as agonist

SMILES | IC50 (Thromboxane-A synthase) | Kb (Canis familiaris [1]) | IC50 (Homo sapiens [2]) | IC50 (Homo sapiens [3]) | pA2 (Canis familiaris [4]) | pA2 (Canis familiaris [5])
O=C(O)CCCCC(CCNS(=O)(=O)c1ccc(Cl)cc1)Cc1cccnc1 (centres undefined) | 14 nM | 11.7 nM | 117 nM | 370 nM | – | –
O=C(O)CCC(CCCCNS(=O)(=O)c1ccc(Cl)cc1)CCCc1cccnc1 (centres undefined) | 2 nM | 1.26 nM | 19 nM | 390 nM | – | –
O=C(O)CCCCCCC(NS(=O)(=O)c1ccc(Cl)cc1)c1cccnc1 (centres undefined) | > 500 nM | – | 27 nM | 600 nM | Agonist | –
O=C(O)CCCC(CCCNS(=O)(=O)c1ccc(Cl)cc1)CCc1cccnc1 (centres undefined) | 20 nM | 1.74 nM | 220 nM | 4600 nM | – | –
O=C(O)C(CCCCCCNS(=O)(=O)c1ccc(Cl)cc1)CCCCCc1cccnc1 (centres undefined) | 4 nM | – | 300 nM | – | – | –
O=C(O)CCCCCC(CNS(=O)(=O)c1ccc(Cl)cc1)c1cccnc1 (centres undefined) | 220 nM | – | 20 nM | 280 nM | – | Agonist
O=C(O)CC(CCCCCNS(=O)(=O)c1ccc(Cl)cc1)CCCCc1cccnc1 (centres undefined) | 100 nM | – | 1390 nM | – | – | –
